The experiment has as its system perception of sweet taste of High Fructose Corn Syrup (HFCS). Nature of the experiment: 2AFC sip and spit sensory test, sweet taste of HFCS in Lemon Lime beverage. It is filed as in vivo, humans. Particulars: Lemon Lime pH 3.1. On the procedure: The effect of the test compounds and combinations of test compounds on the perception of the sweet taste of a flavored beverage (referred to as Lemon Lime henceforth) of sweetener in humans was evaluated using a two-alternative forced choice “sip and spit” method (2AFC). The Lemon Lime solutions were prepared by adding sucrose equivalent (SE) quantities of high fructose corn syrup (HFCS) (by weight), to water to achieve the desired concentration. The lemon lime pH is 3.1. Compounds were first prepared as a 500-fold concentrated stock solution in 100% ethanol. These concentrated stocks were then added to the aqueous sweetener solutions to result in a final ethanol concentration of 0.2%. The control (positive and negative) samples were also normalized to 0.2% ethanol. This level of ethanol was not seen to contribute any perceived sweetness. The 2AFC test used for compound evaluation was a double blinded and randomized test where taste panelists (n≥15) evaluate a pair of sweetener solutions at a time—one sample contains aqueous sweetener solution plus compound (i.e. test) while the other contains aqueous sweetener solution at higher concentration without compound (i.e. positive control). Each test sample was compared against a positive control. For example, if the test sample contained 1× sweetener concentration with compound (e.g. 5brix HFCS with compound), the positive control sample contained a 1.1× sweetener concentration (e.g. 5.5brix HFCS without compound). In this manner, compounds were not assessed simply for an increase in perceived sweetness, but a significant increase in perceived sweetness above the positive control. […] Data were analyzed using binomial probabilities. Approximate levels of sweetness enhancement in column 5 of Table 1 were calculated as follows: Approximate levels of sweetness enhancement=Sweetener concentration of positive control surpassed by the test sample, divided by sweetener concentration for compound-containing sample (e.g. 1.5×=7.5brix HIFCS/5brix HIFCS).

Molecules are shown by their SMILES. Bounds are passed on as bounds.

For the molecule `COc1cc(C2CC(=O)Oc3cc(C)cc(O)c32)ccc1O` (racemic) [Compound 1, 5-hydroxy-4-(4-hydroxy-3-methoxyphenyl)-7-methylchroman-2-one], the “Fold increase in perceived sweetness” value (25 ppm compound, 10 brix HFCS / 7.14 brix HFCS) is more than 1.4×. Besides, the “Compund concentration with positive 2AFC results” value (test sample 7.14 brix HFCS vs positive control 10 brix HFCS, panelists n≥15) amounted to 25 ppm. Besides, the “Sweetener Concentration of positive control surpassed by test sample” value (test sample 7.14 brix HFCS with 25 ppm compound) was found to be 10 brix HFCS.

These data come from US20210282443A1, “COMPOUNDS, COMPOSITIONS, AND METHODS FOR MODULATING SWEET TASTE” (Chromocell Corporation, priority 2016, published 2021).
